Test results reported in BindingDB's records for doi:10.1021/acs.jmedchem.0c01312 (Jinan University, 2020).

Assay: Inhibition of KRas G12C mutant in human NCI-H1792 cells assessed as antiproliferative activity incubated for 3 days by CellTiter-Glo assay

- EC50: 320 nM
Structure (SMILES): C=CC(=O)N1CCN(C(=O)CNc2cc(I)c(Cl)cc2O)CC1
